Reference: publication PMC3532034 (The Journal of neuroscience : the official journal of the …, 2012)

Target: LRRK2 (leucine-rich repeat kinase 2) (Homo sapiens, UniProt Q5S007)
Experiment: in vitro radiometric kinase assay with recombinant purified LRRK2
Format: biochemical

Chain of LRRK2 (leucine-rich repeat kinase 2) (Q5S007 970-2527 limits assumed): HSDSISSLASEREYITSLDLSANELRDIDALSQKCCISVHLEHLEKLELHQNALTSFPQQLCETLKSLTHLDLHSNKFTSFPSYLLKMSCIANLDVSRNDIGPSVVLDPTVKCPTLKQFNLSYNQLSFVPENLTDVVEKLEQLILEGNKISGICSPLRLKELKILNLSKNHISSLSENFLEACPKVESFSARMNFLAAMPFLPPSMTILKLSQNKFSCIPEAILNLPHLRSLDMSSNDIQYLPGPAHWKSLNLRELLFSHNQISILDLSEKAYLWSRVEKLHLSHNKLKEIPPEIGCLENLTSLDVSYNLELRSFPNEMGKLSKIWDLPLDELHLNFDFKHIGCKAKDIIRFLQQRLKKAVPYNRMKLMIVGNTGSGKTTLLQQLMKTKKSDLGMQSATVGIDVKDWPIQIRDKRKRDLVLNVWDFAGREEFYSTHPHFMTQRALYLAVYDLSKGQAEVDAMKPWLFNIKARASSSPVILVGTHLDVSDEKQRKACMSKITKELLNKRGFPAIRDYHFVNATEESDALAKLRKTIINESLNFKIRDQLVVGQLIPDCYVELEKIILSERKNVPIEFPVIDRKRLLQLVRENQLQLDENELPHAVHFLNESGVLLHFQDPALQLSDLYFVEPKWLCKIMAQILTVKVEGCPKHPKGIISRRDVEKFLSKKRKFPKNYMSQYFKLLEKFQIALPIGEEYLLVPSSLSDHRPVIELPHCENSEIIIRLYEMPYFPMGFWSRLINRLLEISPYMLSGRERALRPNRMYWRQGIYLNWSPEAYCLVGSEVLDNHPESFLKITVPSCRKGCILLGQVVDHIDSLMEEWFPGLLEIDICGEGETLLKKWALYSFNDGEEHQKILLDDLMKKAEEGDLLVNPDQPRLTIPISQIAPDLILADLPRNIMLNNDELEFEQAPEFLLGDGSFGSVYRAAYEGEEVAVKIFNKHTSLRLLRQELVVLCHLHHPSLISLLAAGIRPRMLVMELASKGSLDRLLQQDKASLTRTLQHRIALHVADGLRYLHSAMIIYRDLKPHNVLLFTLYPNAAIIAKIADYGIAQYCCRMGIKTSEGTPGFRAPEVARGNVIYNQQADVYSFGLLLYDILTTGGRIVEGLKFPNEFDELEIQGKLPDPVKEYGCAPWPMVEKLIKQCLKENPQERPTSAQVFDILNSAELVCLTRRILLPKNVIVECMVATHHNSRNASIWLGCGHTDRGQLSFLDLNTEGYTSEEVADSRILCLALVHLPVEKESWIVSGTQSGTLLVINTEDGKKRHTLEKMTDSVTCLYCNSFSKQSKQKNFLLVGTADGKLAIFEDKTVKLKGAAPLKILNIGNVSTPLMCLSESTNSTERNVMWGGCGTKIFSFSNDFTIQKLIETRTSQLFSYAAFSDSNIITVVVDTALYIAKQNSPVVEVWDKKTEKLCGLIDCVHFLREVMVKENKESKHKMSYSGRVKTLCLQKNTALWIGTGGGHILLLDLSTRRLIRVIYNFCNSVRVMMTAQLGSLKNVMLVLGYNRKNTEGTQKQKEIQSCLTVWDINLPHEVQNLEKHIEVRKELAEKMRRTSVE

IC50: 40.3 nM
Compound: COc1cc(C(=O)N2CCC(N3CCN(C)CC3)CC2)ccc1Nc1ncc2c(n1)N(C)c1ccccc1C(=O)N2C [L2in1]
